Data published in patent publication US9127016B2, “Small molecule inhibitors of Dusp6 and uses therefor” (University of Pittsburgh—Of the Commonwealth System of …, priority 2009, dated 2015).
Each block holds one compound with its values, some of them ahead of it.

Tests used:
[1] = tested on: FGF signaling (d2EGFP reporter); assay: BCI analog SAR: d2EGFP intensity in transgenic zebrafish embryos by densitometry; format: in vivo; conditions: 20 μM, 24 hpf embryos, 6 h; for Activity (BCI = 100): d2EGFP intensity in the dorsal region
Experimental: Transgenic zebrafish embryos (24 hpf) were treated with 20 μM solution of BCI analogs in 0.5% aq DMSO and fluorescence photomicrographs were taken after 6 h. The effectiveness of BCI analogs was evaluated by densitometry (ImageJ) of d2EGFP intensity in the dorsal region.

[2] = tested on: FGF signaling (Tg(Dusp6:d2EGFP)pt6 reporter); assay: Transgenic zebrafish chemical screen, d2EGFP fluorescence; format: in vivo; conditions: 24 hpf embryos, 6-8 hours; analogs even at four-fold higher concentrations
Experimental: Tg(dusp6:d2EGFP)pt6 embryos were obtained by natural crossings and incubated at 28.5° C. until they reached 24 hpf. Five transgenic embryos were placed into each well from a 96-well plate in 200 μl of E3, and a 0.5% DMSO solution was added along with compound from each library at 10 μM. The NCI diversity set (NCl/NIH), the Natural Products library (MicroSource Discovery Systems Inc.) and Phosphatase targeted set (Chembridge) were screened in this study. (E)-2-Benzylidene-3-(cyclohexylamino)-2,3-dihydro-1H-inden-1-one (BCI; also known as NSC150117) was identified as a compound that enhanced fluorescence in treated transgenic embryos. Treated embryos were photographed under the same settings for exposure, gain and magnification for each picture using a MZFLIII (Leica) microscrope and fluorescent illumination for GFP using endow cube (Chroma Technology Corp., Rockingham, Vt.). Qimaging software and the Retiga Exi camera (Qimaging, Burnaby, BC Canada) were used to capture the images.
We previously described the generation of a transgenic zebrafish line, (Tg(Dusp6:d2EGFP)pt6) that expresses destabilized green fluorescent protein (d2EGFP) under the control of FGF signaling (Molina, G. A., et al. BMC Dev Biol 7, 62 (2007)). Using Tg(Dusp6:d2EGFP) embryos as a biosensor for FGF signaling, we screened over 5000 diverse compounds assembled from chemical libraries for small molecule modulators of this pathway. Five transgenic embryos at 24 hours post fertilization (hpf) were arrayed into each well of a 96-well plate containing test compounds at 10 μM. d2EGFP intensity in treated embryos was visually analyzed and compared to vehicle control (0.5% DMSO) after 6-8 hours. […] To confirm that BCI hyperactivated FGF signaling, we treated embryos prior to gastrulation (5 hpf), and we analyzed by whole mount in situ hybridization, the expression of ntl (zebrafish brachyury), a known FGF target gene (Latinkic, B. V. et al. Genes Dev 11, 3265-76 (1997)). […] We next determined the BCI structural features required to enhance FGF signaling. Two analogs, (E)-2-benzylidene-2,3-dihydro-1H-inden-1-one (BI) lacking the cyclohexylamino group, and 3-(cyclohexylamino)-2,3-dihydro-1H-inden-1-one (ICD) lacking the benzylidene group were synthesized).

Dusp6 = molecular target: T1, Dusp6 (Homo sapiens, UniProt Q16828); assay: Basal Dusp6 dephosphorylation of OMFP; format: biochemical; design: His; made in house
T1 sequence (Q16828 1-381): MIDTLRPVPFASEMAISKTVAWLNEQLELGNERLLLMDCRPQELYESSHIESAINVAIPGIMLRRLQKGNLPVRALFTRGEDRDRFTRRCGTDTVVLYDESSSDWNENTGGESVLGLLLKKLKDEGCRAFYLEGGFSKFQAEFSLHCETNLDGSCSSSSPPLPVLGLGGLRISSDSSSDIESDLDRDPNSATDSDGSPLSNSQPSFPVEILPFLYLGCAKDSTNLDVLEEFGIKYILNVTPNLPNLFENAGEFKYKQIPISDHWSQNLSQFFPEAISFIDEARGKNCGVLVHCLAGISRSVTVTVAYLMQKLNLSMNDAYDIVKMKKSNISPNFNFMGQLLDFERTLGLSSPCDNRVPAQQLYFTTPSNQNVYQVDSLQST
Experimental: For OMFP based ERK2 induced activation of Dusp6, recombinant His-tagged Dusp6 was expressed from a bacterial expression vector and 250 ng were incubated with the indicated concentrations of NSC95397 or BCI. OMFP was added at its apparent Km (100 μM) (Vogt, A. et al. J Biol Chem 280, 19078-86 (2005)). The final reaction volume was 15 μl. After 1 h at RT, OMF fluorescence was measured on an M5 multimode reader (Molecular Devices) at excitation/emission wavelengths of 485/525 nm. To assay activated Dusp6, 210 ng or 2.1 μg of recombinant ERK2 (Cell signaling) were added to Dusp6(210 ng)/BCI(100 μM) mixtures to measure activation at 1:1 and 1:10 ratio of substrate to enzyme. OMFP was immediately added and fluorescence (ex485/em525 nm) was read every 10 min for 130 min. Fold activation was calculated at 60 mins in each experiment.

PTP1B = molecular target: T2, PTP1B (Homo sapiens, UniProt P18031); assay: OMFP phosphatase assay, PTP1B; format: biochemical; conditions: 100 μM, positive control
T2 sequence (P18031 1-435): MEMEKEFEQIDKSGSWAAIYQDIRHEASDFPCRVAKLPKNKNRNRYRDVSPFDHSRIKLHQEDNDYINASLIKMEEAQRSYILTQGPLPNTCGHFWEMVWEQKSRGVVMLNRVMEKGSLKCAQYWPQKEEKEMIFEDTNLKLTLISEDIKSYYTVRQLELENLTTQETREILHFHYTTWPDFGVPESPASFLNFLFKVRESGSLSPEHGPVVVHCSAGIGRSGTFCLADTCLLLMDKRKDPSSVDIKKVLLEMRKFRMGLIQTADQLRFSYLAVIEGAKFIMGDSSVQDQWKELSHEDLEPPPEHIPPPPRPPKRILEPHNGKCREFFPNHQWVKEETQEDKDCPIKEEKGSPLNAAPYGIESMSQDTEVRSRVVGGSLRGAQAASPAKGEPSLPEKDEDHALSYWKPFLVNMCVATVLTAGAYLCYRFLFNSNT
Experimental: (§1) Enzyme activities in the presence or absence of BCI were measured using the artificial substrate […] at concentrations equal to the Km of each enzyme (Cdc25B, PTP1B & Dusp3/VHR) and at optimal pH for individual enzyme activity in a 96-well microtiter plate assay based on previously described methods by Lazo et al. (J Med Chem 44, 4042-9 (2001) and Lazo, J. S. et al. Bioorg Med Chem 14, 5643-50 (2006)). Briefly, the standard assay conditions contained 0.02 mg/ml OMFP in assay buffer (30 mM Tris-HCl (pH8.0), 75 mM NaCl, 1 mM EDTA, 0.33% BSA and 1 mM DTT). Fluorescence emission was measured after a sixty-minute incubation period at ambient temperature using a multiwell plate reader (SpectraMax m5, […]; excitation 485 nm, emission 525 nm). Sodium orthovanadate (100 μM) was used as a positive control for full phosphatase inhibition. IC50 concentrations were determined from three experiments using 10 concentrations of BCI ranging from 300 μM to 15.2 nM and GraphPad Prism 5.0 software.

Dusp3/VHR = Dusp3/VHR (Homo sapiens, UniProt P51452); assay: OMFP phosphatase assay, Dusp3/VHR; format: biochemical; conditions: 100 μM, positive control
Dusp3/VHR, sequence (P51452 whole entry): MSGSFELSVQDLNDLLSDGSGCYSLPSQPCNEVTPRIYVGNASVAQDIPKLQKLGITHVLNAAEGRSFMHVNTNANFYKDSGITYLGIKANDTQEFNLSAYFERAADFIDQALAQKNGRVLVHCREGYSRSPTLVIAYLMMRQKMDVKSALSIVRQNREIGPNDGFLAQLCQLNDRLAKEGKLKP
Experimental: as §1

Cdc25B = molecular target: T3, Cdc25B (Homo sapiens, UniProt P30305); assay: OMFP phosphatase assay, Cdc25B; format: biochemical; conditions: 100 μM, positive control
T3 sequence (P30305 1-580): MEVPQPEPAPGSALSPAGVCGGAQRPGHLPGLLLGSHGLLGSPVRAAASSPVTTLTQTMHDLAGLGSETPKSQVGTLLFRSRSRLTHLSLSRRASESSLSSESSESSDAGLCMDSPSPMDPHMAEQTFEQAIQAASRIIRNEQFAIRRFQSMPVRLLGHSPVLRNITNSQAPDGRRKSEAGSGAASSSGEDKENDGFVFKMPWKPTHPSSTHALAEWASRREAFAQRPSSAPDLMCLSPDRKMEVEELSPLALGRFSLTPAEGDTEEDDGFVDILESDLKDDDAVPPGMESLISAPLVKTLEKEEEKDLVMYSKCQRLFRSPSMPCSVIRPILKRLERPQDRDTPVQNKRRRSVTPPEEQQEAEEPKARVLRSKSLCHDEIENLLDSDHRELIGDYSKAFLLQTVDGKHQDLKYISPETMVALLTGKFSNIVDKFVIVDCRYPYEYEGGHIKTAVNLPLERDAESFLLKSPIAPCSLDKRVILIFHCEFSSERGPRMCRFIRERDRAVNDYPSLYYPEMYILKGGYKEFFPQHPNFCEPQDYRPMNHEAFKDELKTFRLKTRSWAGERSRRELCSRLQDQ
Experimental: as §1

Compound: O=C1/C(=C/c2ccccc2)C(NC2CCCCC2)c2ccccc21 (single isomer, unassigned; (-)) [(−)-BCI]
activity of the levorotatory enantiomer relative to the dextrorotatory form [1]: twice | Activity (BCI = 100) [1]: 156

Compound: O[C@H]1/C(=C/c2ccccc2)[C@H](NC2CCCCC2)c2ccccc21 (stereo in doubt) [Compound 18, 2-Benzylidene-3-cyclohexylaminoindan-1-ol]
Activity (BCI = 100) [1]: 26

Compound: O=C1/C(=C/c2ccccc2)Cc2ccccc21 [Compound 1, (E)-2-benzylidene-2,3-dihydro-1H-inden-1-one]
d2EGFP fluorescence in treated transgenic embryos [2]: inactive | in vivo activity relative to BCI, in words [1]: inactive | Activity (BCI = 100) [1]: 0

Compound: O=C1/C(=C/c2ccccc2)C(NC2CCCC2)c2ccccc21 (stereo not shown) [Compound 4]
Activity (BCI = 100) [1]: 123

Compound: O=C1/C(=C/c2ccccc2)C(NC2CCCCCC2)c2ccccc21 (stereo not shown) [Compound 5, 2-Benzylidene-3-cycloheptylaminoindan-1-one]
Activity (BCI = 100) [1]: 127

Compound: O=C1/C(=C/c2ccccc2)C(Nc2ccccc2)c2ccccc21 (stereo not shown) [Compound 6]
Activity (BCI = 100) [1]: 7

Compound: O=C1/C(=C/c2ccccc2)C(N2CCCCC2)c2ccccc21 (stereo not shown) [Compound 7]
Activity (BCI = 100) [1]: 114

Compound: O=C1/C(=C/c2ccccc2)C(N2CCOCC2)c2ccccc21 (stereo not shown) [Compound 9]
Activity (BCI = 100) [1]: 114

Compound: O=C1/C(=C/c2ccccc2)C(N2CCSCC2)c2ccccc21 (stereo not shown) [Compound 10]
Activity (BCI = 100) [1]: 27

Compound: O=C1/C(=C/c2ccccc2)C(N2CCNCC2)c2ccccc21 (stereo not shown) [Compound 11]
Activity (BCI = 100) [1]: 22

Compound: CN1CCN(C2/C(=C\c3ccccc3)C(=O)c3ccccc32)CC1 (stereo not shown) [Compound 12]
Activity (BCI = 100) [1]: 0

Compound: CC(=O)N1CCN(C2/C(=C\c3ccccc3)C(=O)c3ccccc32)CC1 (stereo not shown) [Compound 13]
Activity (BCI = 100) [1]: 47

Compound: O=C1/C(=C/c2ccc(Cl)cc2)C(NC2CCCCC2)c2ccccc21 (stereo not shown) [Compound 14]
activity as compared to BCI [1]: 52% | Activity (BCI = 100) [1]: 52

Compound: N#Cc1ccc(/C=C2/C(=O)c3ccccc3C2NC2CCCCC2)cc1 (stereo not shown) [Compound 15]
activity as compared to BCI [1]: 20% | Activity (BCI = 100) [1]: 20

Compound: O=C1N[C@H]2[C@H](CS[C@H]2CCCCC(=O)N[C@H]2CC[C@H](NC3/C(=C\c4ccccc4)C(=O)c4ccccc43)CC2)N1 (stereo partly shown) [Compound 19]
in vivo activity relative to BCI, in words [1]: no effect on FGF signaling | Activity (BCI = 100) [1]: No activity,

effect on basal Dusp6 activity toward OMFP (Dusp6): blocked basal Dusp6 activity toward OMFP
Compound: O=C1C(SCCO)=C(SCCO)C(=O)c2ccccc21 [NSC95397, 2,3-bis(2-hydroxyethylthio)naphthalene-1,4-dione, reference compound]

inhibition of PTP1B (PTP1B): 100% | inhibition of Dusp3/VHR (Dusp3/VHR): 100% | inhibition of Cdc25B (Cdc25B): 100%
Compound: [Na+].[Na+].[Na+].[O]=[V]([O-])([O-])[O-] [Sodium orthovanadate, reference compound]
